“Also recorded” adds a separate entry of the source.
Experiments:
[1] = tested on: human dermal fibroblasts; experiment: Generation of pro-inflammatory cytokines by fibroblasts (multiplex ELISA); format: cell-based; settings: KBM 1.5 mM calcium, two days, culture fluids
Protocol: Fibroblasts were grown in KBM supplemented with 1.5 mM calcium (i.e., as in the fibroblast cytotoxicity assay) for two days. Culture fluids obtained at the end of the incubation period were assessed for several pro-inflammatory cytokines using a multiplex (ELISA-type) assay. Values shown are means and ranges based on duplicate samples in a single experiment. The experiment was repeated two times with similar results.
It is believed that the pro-inflammatory cytokines are “drivers” of the retinoid-induced skin irritation response. […] In this experiment, fibroblasts were cultured for two days in KBM supplemented with 1.5 mM calcium (i.e., as in the cytotoxicity assay). Culture fluids were collected after two days of incubation and subjected to a multiplex enzyme-linked immunosorbant assay (ELISA) for the following cytokines: TNF-α, IL-1β, IL-6, IL-8, MCP-1 and CXCL-1.

[2] = tested on: serum pro-inflammatory cytokines; settings: mouse, in vivo
Description: Each of the 4 experimental retinoids was made up in DMSO as 0.1% and 0.3% solutions. The material was applied to the treatment area (2 cm^2 area) on a dot marked area on the inter-scapular back) once daily for 7 consecutive days or for 21 consecutive days. The test agent was gently rubbed into the test site after application. As a control, Tretinoin-0.1% was used. […] This is a commonly-prescribed anti-acne medicine. A set amount of the test article, DMSO, DMSO plus test drug, or Tretinoin cream (35 mg) was delivered using a Gilson MICROMAN fully adjustable positive placement pipette.
Serum was obtained from all mice at the end of the study and evaluated for levels of pro-inflammatory cytokines. For this, the same multiplex ELISA used with human samples was employed except that mouse-recognizing antibodies replaced antibodies used to detect the human counterparts.

[3] = tested on: human dermal fibroblasts; experiment: Retinoid-induced fibroblast survival under low-calcium conditions; format: cell-based; settings: KBM 0.1 mM calcium, three days, 0.1 to 5 μg/mL
Protocol: Human dermal fibroblasts are isolated from skin biopsies as described previously and grown in monolayer culture using DMEM supplemented with 10% fetal bovine serum as culture medium (see, e.g., Varani J, et al., J Clin Invest. 1994; 94; Varani J, et al., J. Invest. Dermatol. 94:717-723, 1990). Growth is at 37° C. in a humidified atmosphere containing 5% CO2 and 95% air. For experimental studies, cells are plated at 5×10^4 cells per well in wells of a 24-well culture dish in the same culture medium. One day later, cells are washed and the DMEM culture medium is replaced with Keratinocyte Basal Medium (KBM).
In this assay, low-passage human dermal fibroblasts are grown for three days in Keratinocyte Basal Medium (KBM) at a calcium concentration (0.1 mM) that is too low to support survival. […] How retinoids act to prevent fibroblast lysis is not fully understood, but part of the mechanism involves modulation of calcium transit across the cell membrane in the presence of the active retinoids (see, e.g., Varani J, et al., Am. J. Path. 136:1275-1281, 1990; Varani K, et al., Am J. Pathol. 147:718-729, 1995; Varani J, et al., Amer. J. Pathol. 148: 1307-1312, 1996).

[4] = tested on: rhino mouse skin; experiment: Rhino mouse topical treatment: skin histology (horn-filled utriculi, epidermal thickness, inflammation); format: in vivo; settings: topical, concentration not given; for inflammatory response / inflammatory cell infiltrate in histological sections (in words): 21 days
Description: FIGS. 12A-C: Efficacy of retinoids at normalizing structure of rhino mouse skin after topical treatment for 21 days.
FIGS. 13A-C: Dose related effect of Example 2 on rhino mouse skin.
The rhinomouse model is an industry-standard pre-clinical model for evaluation of retinoids for anti-acne activity. The mice can be treated topically over a course of days with the desired compound (either formulated or in liquid solvent). During the course of treatment, the animals can be evaluated grossly for skin irritation. At the end of the treatment phase, the animals are euthanized. Skin from treated sites can be evaluated for efficacy—reduction in the number of horn-filled utriculi—and for histological evidence of inflammation.
As a control, Tretinoin-0.1% was used. […] This is a commonly-prescribed anti-acne medicine.
One day after the last treatment, animals were euthanized. The animals were injected with 7 ml 10% buffered formalin after euthanasia. 15 minutes later the treated area on the back of the mouse was removed and cut into 8 pieces. Every other piece was taken, so four pieces of skin were mounted in one cassette and fixed for histology. An extra piece of skin from a non-treated area was also evaluated.
Hematoxylin and eosin stained sections were evaluated microscopically for epidermal thickness with measurements made in the inter-follicular regions at 4 representative sites per tissue strip.
The number of horn-filled utriculi was determined by direct counting in the entire section of skin. Each of the four sections per biopsy was used for determining the number of utriculi. Section lengths were measured as a way to normalize findings. Typically, the section of skin varied from 16-20 mm.
Slides were examined microscopically and inflammation was scored on a 0 to 4+ basis. A score of zero indicated no inflammation while increasing collection of inflammatory cells was identified with increasing score. Slides were also evaluated to determine if inflammation was confined to the dermis or whether there was epidermal inflammation. Dermal inflammation was assessed to determine if inflammatory cells were scattered throughout the dermis or whether small abscesses were also present. Finally, the inflammatory lesions were evaluated to determine whether they consisted of primarily mononuclear cells, granulocytic cells or both. A similar scale has been used previously in the assessment of skin irritation.
At the end of the in-life portion of the study, mice were euthanized by CO2 overdose. Hematoxylin and eosin-stained histological sections from each mouse in the control, ATRA-treated and Compound 2-treated groups were evaluated with regard to the number of horn-filled utriculi, epidermal thickness, and inflammation. Briefly, the epidermis of control mice consisted of a thin epidermis with large numbers of horn-filled utriculi (98+10 per 20 mm of epidermal linear length). […] Both the ATRA-treated mouse (top right panel) the Compound 2 treated skin (bottom panel) show both much thickened […] and disappearance of utriculi. […] There were large numbers of inflammatory cells in the dermis. Microabscesses could be seen in places, and migration of inflammatory cells into the epidermis was also evident. The infiltrate consisted of both mononuclear cells and granulocytes. […] The three other experimental retinoids were also examined along with Compound 2. […] In FIG. 13 it can be seen that during the dosing period 0.1% of Compound 2 led to skin thickening, but incomplete resolution of the utricali, whereas at 0.3% the utricali were more fully resolved.

[5] = tested on: human skin in organ culture; settings: cited from earlier work
[6] = tested on: systemic cytokine release; settings: intraperitoneal dosing; cited from earlier work
[7] = tested on: skin wounds; experiment: Wound healing in rats with steroid-induced atrophic skin; format: in vivo, rat
Description: FIGS. 15A-C: Results from a study in rats in which the skin was made atrophic by topical steroid treatment and then wounded. […] In the control animal (15CL), there was incomplete re-epithelialization over the wound and little collagen deposition in the dermis. […] The lack of irritation/inflammation is expected in the control animal but is unusual for a retinoid-treated animal. The data shown here was consistent over n=5 animals per group.
Given the lack of irritation associated with MDI 301, experiments were conducted reasoning that this retinoid might work in the acute wound setting. Essentially, a group of rats were treated with a potent steroid to induce skin atrophy followed by a wounding of the skin. Following this, rats were treated with vehicle alone or with MDI 301. […] It should be noted that in this study ATRA cannot be used, as its irritant properties exacerbate the original injury.

**Q.** Which “induction of pro-inflammatory cytokines (TNF-α, IL-1β, IL-6, IL-8, MCP-1, CXCL-1)” value [1] does the source give for CC1=C(/C=C/C(C)=C\C=C\C(C)=C\C(=O)N2CCCC(=O)C2)C(C)(C)CCC1 [Example 3, 1-((2E,4E 6Z,8E)-3,7-dimethyl-9-(2,6,6-trimethylcyclohex-1-en-1-yl)nona-2,4,6,8-tetranonyl)piperidin-3-one] here?
**A.** much lower levels of the various cytokines than did ATRA

**Q.** And the IL-1β serum level [2]?
**A.** low

**Q.** What about the TNF-α serum level [2] of the same molecule?
**A.** low

**Q.** What about the “protection of fibroblasts from lysis (percentage of initially present cells still viable)” value [3] of the same molecule?
**A.** capable of protecting fibroblasts from lysis under low-calcium conditions

**Q.** And the “inflammatory response / inflammatory cell infiltrate in histological sections (in words)” value [4]?
**A.** did not produce an inflammatory response

**Q.** And the “number of utriculi compared to control (in words)” value [4]?
**A.** reduced the number of utriculi as compared to control

**Q.** With CC1=C(/C=C/C(C)=C\C=C\C(C)=C\C(=O)N(C)CC(=O)C2(C)CC2)C(C)(C)CCC1 [Example 4, (2E,4E,6Z,8E)-N,3,7-trimethyl—N-(2-(1-methylcyclopropyl)-2-oxoethyl)-9-(2,6,6-trimethylcyclohex-1-en-1-yl)nona-2,4,6,8-tetraenamide] as the molecule, how does the “induction of pro-inflammatory cytokines (TNF-α, IL-1β, IL-6, IL-8, MCP-1, CXCL-1)” value [1] read?
**A.** much lower levels of the various cytokines than did ATRA; also recorded: comparable to Compound 1

**Q.** And the IL-1β serum level [2]?
**A.** low

**Q.** What about the TNF-α serum level [2] of the same molecule?
**A.** low

**Q.** What about the “protection of fibroblasts from lysis (percentage of initially present cells still viable)” value [3] of the same molecule?
**A.** capable of protecting fibroblasts from lysis under low-calcium conditions

**Q.** And the “inflammatory response / inflammatory cell infiltrate in histological sections (in words)” value [4]?
**A.** did not produce an inflammatory response

**Q.** What about the “number of utriculi compared to control (in words)” value [4] of the same molecule?
**A.** reduced the number of utriculi as compared to control

**Q.** With CC1=C(/C=C/C(C)=C\C=C\C(C)=C\C(=O)OCC(=O)C(C)(C)C)C(C)(C)CCC1 [MDI 301] as the molecule, how does the “effect on collagen-degrading enzyme MMP-1 (collagenase 1)” value ([5]; human skin organ culture model) read?
**A.** inhibited the major collagen-degrading enzyme (MMP-1, collagenase 1)

**Q.** And the “procollagen I production” value ([5]; human skin organ culture model)?
**A.** induced procollagen I production

**Q.** And the “up-regulation of the pro-inflammatory cytokines that underlie retinoid-induced skin irritation” value ([5]; past studies)?
**A.** did not up-regulate the pro-inflammatory cytokines

**Q.** And the systemic cytokine release [6]?
**A.** did not elicit systemic cytokine release

**Q.** And the “histology of the wound site” value ([7]; 1% cream, after 13 days)?
**A.** confluent layer of epithelial keratinocytes over the wound site and a pronounced zone of fibroblast proliferation with new collagen formation under the epithelial layer

**Q.** What about the “skin irritation and inflammation at the wound site” value ([7]; 1% cream, after 13 days) of the same molecule?
**A.** lack of skin irritation (15BR) and lack of inflammation (15CR)

**Q.** What about the “healing of skin wounds compared to control rats” value ([7]; 1.0% cream, ~100 mgs daily to wound periphery, 13 days) of the same molecule?
**A.** healed more rapidly

Source: patent US11148998B2, “Dimethyl-nonatetraenyl-trimethyl-cyclohexyl compounds and uses thereof” (The Regents of the University of Michigan, priority 2017, dated 2021)
